Assay results published in patent publication US20210259246A1, “SUBSTITUTED 4-HETEROARYLOXYPYRIDINES AND SALTS THEREOF AND THEIR USE AS HERBICIDAL AGENTS” (BAYER AKTIENGESELLSCHAFT, priority 2018, published 2021).

Experiments:
Assay type in all cases: in vivo
Stellaria media (STEME) [1] = assay: Herbicidal pre-emergence action; conditions: 1280 g/ha; scored visually after about 3 weeks vs untreated controls; 100% = plants have died, 0% = like control plants
Text: (§1) Seeds of mono- and dicotyledonous weed plants were placed in plastic pots in sandy loam soil (doubly sown with in each case one species of mono- or dicotyledonous weed plants per pot) and covered with soil. The compounds of the invention, formulated in the form of wettable powders (WP) or as emulsion concentrates (EC), were then applied onto the surface of the covering soil as aqueous suspension or emulsion with addition of 0.5% additive at a water application rate of 600 liters per hectare (converted). After the treatment, the pots were placed in a greenhouse and kept under good growth conditions for the test plants. After about 3 weeks, the effect of the preparations was scored visually in comparison with untreated controls as percentages. For example, 100% activity=the plants have died, 0% activity=like control plants. Tables C1 to C8 below show the effects of selected compounds of the general formula (I) according to Table 1 on various harmful plants and an application rate corresponding to 1280 g/ha, which were obtained by the experimental procedure mentioned above.

[2] = system: Matricaria inodora (MATIN); assay: Herbicidal pre-emergence action; conditions: 1280 g/ha; scored visually after about 3 weeks vs untreated controls; 100% = plants have died, 0% = like control plants
Text: as §1

[3] = system: Amaranthus retroflexus (AMARE); assay: Herbicidal pre-emergence action; conditions: 1280 g/ha; scored visually after about 3 weeks vs untreated controls; 100% = plants have died, 0% = like control plants
Text: as §1

Setaria viridis (SETVI) [4] = assay: Herbicidal pre-emergence action; conditions: 1280 g/ha; scored visually after about 3 weeks vs untreated controls; 100% = plants have died, 0% = like control plants
Text: as §1

[5] = system: Echinochloa crus-galli (ECHCG); assay: Herbicidal pre-emergence action; conditions: 1280 g/ha; scored visually after about 3 weeks vs untreated controls; 100% = plants have died, 0% = like control plants
Text: as §1

Poa annua (POAAN) [6] = assay: Herbicidal pre-emergence action; conditions: 1280 g/ha; scored visually after about 3 weeks vs untreated controls; 100% = plants have died, 0% = like control plants
Text: as §1

Lolium rigidum (LOLRI) = assay: Herbicidal pre-emergence action; conditions: 1280 g/ha; scored visually after about 3 weeks vs untreated controls; 100% = plants have died, 0% = like control plants
Text: as §1

[7] = system: Abutilon theophrasti (ABUTH); assay: Herbicidal pre-emergence action; conditions: 1280 g/ha; scored visually after about 3 weeks vs untreated controls; 100% = plants have died, 0% = like control plants
Text: as §1

Stellaria media (STEME) [8] = assay: Herbicidal post-emergence action; conditions: 1280 g/ha; rated visually about 3 weeks after treatment vs untreated controls; 100% = plants have died, 0% = like control plants
Procedure: (§2) Seeds of mono- and dicotyledonous weed plants were placed in plastic pots in sandy loam soil (doubly sown with in each case one species of mono- or dicotyledonous weed plants per pot), covered with soil and cultivated in a greenhouse under controlled growth conditions. 2 to 3 weeks after sowing, the test plants were treated at the one-leaf stage. The compounds of the invention, formulated in the form of wettable powders (WP) or as emulsion concentrates (EC), were applied onto the green parts of the plants as aqueous suspension or emulsion with addition of 0.5% additive at a water application rate of 600 liters per hectare (converted). After the test plants had been kept in the greenhouse under optimum growth conditions for about 3 weeks, the activity of the preparations was rated visually in comparison to untreated controls. For example, 100% activity=the plants have died, 0% activity=like control plants. Tables B1 to B6 below show the effects of selected compounds of the general formula (I) according to Table 1 on various harmful plants and an application rate corresponding to 1280 g/ha, which were obtained by the experimental procedure mentioned above.

[9] = system: Amaranthus retroflexus (AMARE); assay: Herbicidal post-emergence action; conditions: 1280 g/ha; rated visually about 3 weeks after treatment vs untreated controls; 100% = plants have died, 0% = like control plants
Procedure: as §2

Setaria viridis (SETVI) [10] = assay: Herbicidal post-emergence action; conditions: 1280 g/ha; rated visually about 3 weeks after treatment vs untreated controls; 100% = plants have died, 0% = like control plants
Procedure: as §2

[11] = system: Echinochloa crus-galli (ECHCG); assay: Herbicidal post-emergence action; conditions: 1280 g/ha; rated visually about 3 weeks after treatment vs untreated controls; 100% = plants have died, 0% = like control plants
Procedure: as §2

Poa annua (POAAN) [12] = assay: Herbicidal post-emergence action; conditions: 1280 g/ha; rated visually about 3 weeks after treatment vs untreated controls; 100% = plants have died, 0% = like control plants
Procedure: as §2

[13] = system: Abutilon theophrasti (ABUTH); assay: Herbicidal post-emergence action; conditions: 1280 g/ha; rated visually about 3 weeks after treatment vs untreated controls; 100% = plants have died, 0% = like control plants
Procedure: as §2

Agrostis tenuis (AGSTE) = assay: Herbicidal early post-emergence action; conditions: 1900 g/ha; scored visually 9 to 12 days after treatment vs untreated controls; 100% = plants have died, 0% = like control plants
Procedure: (§3) Seeds of monocotyledonous or dicotyledonous weed plants were placed in 96-well microtiter plates in quartz sand and grown in a climatized chamber under controlled growth conditions. 5 to 7 days after sowing, the test plants were treated at the cotyledon stage. The compounds according to the invention, formulated in the form of emulsion concentrates (EC), were applied with a water application rate of the equivalent of 2200 liters per hectare. After the test plants had been left to stand in the climatized chamber for 9 to 12 days under optimum growth conditions, the effect of the preparations was scored visually in comparison to untreated controls. For example, 100% activity=the plants have died, 0% activity=like control plants. Tables A1 to A6 below show the effects of selected compounds of the general formula (I) according to Table 1 on various harmful plants and an application rate corresponding to 1900 g/ha, which were obtained by the experimental procedure mentioned above.

Lolium perenne (LOLPE) = assay: Herbicidal early post-emergence action; conditions: 1900 g/ha; scored visually 9 to 12 days after treatment vs untreated controls; 100% = plants have died, 0% = like control plants
Procedure: as §3

Setaria viridis (SETVI) [14] = assay: Herbicidal early post-emergence action; conditions: 1900 g/ha; scored visually 9 to 12 days after treatment vs untreated controls; 100% = plants have died, 0% = like control plants
Procedure: as §3

[15] = system: Diplotaxis muralis (DIPTE); assay: Herbicidal early post-emergence action; conditions: 1900 g/ha; scored visually 9 to 12 days after treatment vs untreated controls; 100% = plants have died, 0% = like control plants
Procedure: as §3

Veronica persica (VERPE) = assay: Herbicidal early post-emergence action; conditions: 1900 g/ha; scored visually 9 to 12 days after treatment vs untreated controls; 100% = plants have died, 0% = like control plants
Procedure: as §3

Poa annua (POAAN) [16] = assay: Herbicidal early post-emergence action; conditions: 1900 g/ha; scored visually 9 to 12 days after treatment vs untreated controls; 100% = plants have died, 0% = like control plants
Procedure: as §3

| Structure (SMILES) | Pre-emergence action against Stellaria media (STEME) (Stellaria media (STEME) [1]) | Pre-emergence action against Matricaria inodora (MATIN) [2] | Pre-emergence action against Amaranthus retroflexus (AMARE) [3] | Pre-emergence action against Setaria viridis (SETVI) (Setaria viridis (SETVI) [4]) | Pre-emergence action against Echinochloa crus-galli (ECHCG) [5] | Pre-emergence action against Poa annua (POAAN) (Poa annua (POAAN) [6]) | Pre-emergence action against Lolium rigidum (LOLRI) (Lolium rigidum (LOLRI)) | Pre-emergence action against Abutilon theophrasti (ABUTH) [7] | Post-emergence action against Stellaria media (STEME) (Stellaria media (STEME) [8]) | Post-emergence action against Amaranthus retroflexus (AMARE) [9] | Post-emergence action against Setaria viridis (SETVI) (Setaria viridis (SETVI) [10]) | Post-emergence action against Echinochloa crus-galli (ECHCG) [11] | Post-emergence action against Poa annua (POAAN) (Poa annua (POAAN) [12]) | Post-emergence action against Abutilon theophrasti (ABUTH) [13] | Early post-emergence action against Agrostis tenuis (AGSTE) (Agrostis tenuis (AGSTE)) | Early post-emergence action against Lolium perenne (LOLPE) (Lolium perenne (LOLPE)) | Early post-emergence action against Setaria viridis (SETVI) (Setaria viridis (SETVI) [14]) | Early post-emergence action against Diplotaxis muralis (DIPTE) [15] | Early post-emergence action against Veronica persica (VERPE) (Veronica persica (VERPE)) | Early post-emergence action against Poa annua (POAAN) (Poa annua (POAAN) [16]) |
| --- | --- | --- | --- | --- | --- | --- | --- | --- | --- | --- | --- | --- | --- | --- | --- | --- | --- | --- | --- | --- |
| Cc1cc(Oc2ncc(Cl)cn2)c(Sc2ccc(F)cc2)c(C)n1 [Example 1-26, 2,6-Dimethyl-3-(4-fluorophenylthio)-4-(5-chloropyrimidin-2-yloxy)pyridine] | 100% | 100% | 100% | 100% | 100% | 100% | 100% | 100% | 100% | 100% | 90% | 100% | 100% | 100% | – | – | – | – | – | – |
| Cc1cc(Oc2ncc(Cl)cn2)c(Sc2ccc(F)c(F)c2)c(C)n1 [Example 1-27] | 100% | 100% | 100% | 100% | 100% | 100% | 100% | 90% | 100% | 100% | – | 100% | – | 90% | – | – | – | – | – | – |
| Cc1cc(Oc2ncc(Cl)cn2)c(Sc2cccc(C(F)(F)F)c2)c(C)n1 [Example 1-28] | 100% | 90% | 90% | – | – | 90% | – | – | 100% | 90% | – | – | 100% | – | – | – | – | – | – | – |
| Cc1cc(Oc2ncc(Cl)cn2)c(Sc2ccc(C#N)cc2)c(C)n1 [Example 1-30] | 100% | 90% | 100% | 90% | 100% | 100% | 90% | 90% | 100% | – | – | 100% | 100% | – | – | – | – | – | – | – |
| COC(=O)c1cc(Oc2ncc(Cl)cn2)c(Sc2ccc(F)cc2)c(C(=O)OC)n1 [Example 1-50] | – | – | – | – | – | – | – | – | – | – | – | – | – | – | 80% | – | – | – | – | – |
| Cc1nccc(Oc2ncc(Cl)cn2)c1Sc1ccc(F)cc1 [Example 1-86] | – | – | – | – | – | – | – | – | – | – | – | – | – | – | 100% | 80% | 80% | 80% | 80% | 100% |
| Cc1nccc(Oc2ncc(F)cn2)c1Oc1ncc(F)cn1 [Example 1-91] | 90% | 90% | 100% | – | – | – | – | – | – | – | – | – | – | – | – | – | – | – | – | – |
